Laboratory results from PMC5218480 (PLoS ONE, 2017).

Test system: MV-4-11 cells
Test: Gene expression microarray analysis (Affymetrix PrimeView) and GSEA
Assay type: cell-based, human
Design: RFU PODN (11730768_x_at) / Fold change /veh PODN (11730768_x_at) / RFU LINC00158 (11744669_a_at) / Fold change /veh LINC00158 (11744669_a_at) / RFU DUSP10 (11751237_a_at) / Fold change /veh DUSP10 (11751237_a_at) / RFU ID3 (11757404_x_at) / Fold change /veh ID3 (11757404_x_at) / RFU PLEKHG5 (11737974_s_at) / Fold change /veh PLEKHG5 (11737974_s_at) / RFU LRRC4B (11730491_at) / Fold change /veh LRRC4B (11730491_at) / RFU GIMAP4 (11747438_a_at) / Fold change /veh GIMAP4 (11747438_a_at) / RFU KRT8 (11758183_x_at) / Fold change /veh KRT8 (11758183_x_at) / RFU CNN1 (11734310_a_at) / Fold change /veh CNN1 (11734310_a_at) / RFU VPS37D (11726825_at) / Fold change /veh VPS37D (11726825_at) / RFU C10orf10 (11716522_x_at) / Fold change /veh C10orf10 (11716522_x_at) / RFU KIR2DL2 /// KIR2DL4 /// KIR2DL5A /// KIR2DL5B /// KIR2DS1 /// KIR2DS2 /// KIR2DS3 /// KIR2DS4 /// KIR3DL3 /// KIR3DL3 /// KIR3DS1 (11738374_at) / Fold change /veh KIR2DL2 /// KIR2DL4 /// KIR2DL5A /// KIR2DL5B /// KIR2DS1 /// KIR2DS2 /// KIR2DS3 /// KIR2DS4 /// KIR3DL3 /// KIR3DL3 /// KIR3DS1 (11738374_at) / RFU C1QL1 (11718748_at) / Fold change /veh C1QL1 (11718748_at) / RFU TMPRSS4 (11747572_a_at) / Fold change /veh TMPRSS4 (11747572_a_at) / RFU HAMP (11756126_x_at) / Fold change /veh HAMP (11756126_x_at) / RFU RNFT2 (11725882_a_at) / Fold change /veh RNFT2 (11725882_a_at) / RFU NR4A2 (11747474_a_at) / Fold change /veh NR4A2 (11747474_a_at) / RFU ABCC12 (11746883_a_at) / Fold change /veh ABCC12 (11746883_a_at) / RFU TMEM136 (11760407_x_at) / Fold change /veh TMEM136 (11760407_x_at) / RFU CLDN22 /// WWC2 (11732394_at) / Fold change /veh CLDN22 /// WWC2 (11732394_at) / RFU HLA-DPB1 (11760878_x_at) / Fold change /veh HLA-DPB1 (11760878_x_at) / RFU SPINT1 (11716480_a_at) / Fold change /veh SPINT1 (11716480_a_at) / RFU GAP43 (11754022_s_at) / Fold change /veh GAP43 (11754022_s_at) / RFU A4GNT (11735810_at) / Fold change /veh A4GNT (11735810_at) / RFU PRB3 (11715151_x_at) / Fold change /veh PRB3 (11715151_x_at) / RFU TUBB4B (11761932_at) / Fold change /veh TUBB4B (11761932_at) / RFU CAPN14 (11732068_a_at) / Fold change /veh CAPN14 (11732068_a_at) / RFU TMCC2 (11721928_a_at) / Fold change /veh TMCC2 (11721928_a_at) / RFU IRGQ (11745062_a_at) / Fold change /veh IRGQ (11745062_a_at) / RFU FAM174B (11720279_a_at) / Fold change /veh FAM174B (11720279_a_at) / RFU TMPRSS4 (11748680_a_at) / Fold change /veh TMPRSS4 (11748680_a_at) / RFU FAM212B (11763350_a_at) / Fold change /veh FAM212B (11763350_a_at) / RFU PLEKHG5 (11743358_a_at) / Fold change /veh PLEKHG5 (11743358_a_at) / RFU ZSCAN30 (11745921_a_at) / Fold change /veh ZSCAN30 (11745921_a_at) / RFU CMKLR1 (11741424_a_at) / Fold change /veh CMKLR1 (11741424_a_at) / RFU LOC101060620 /// MAPK8IP1 (11723275_at) / Fold change /veh LOC101060620 /// MAPK8IP1 (11723275_at) / RFU SPTSSB (11747773_x_at) / Fold change /veh SPTSSB (11747773_x_at) / RFU PRSS12 (11739890_at) / Fold change /veh PRSS12 (11739890_at) / RFU BIN1 (11741810_x_at) / Fold change /veh BIN1 (11741810_x_at) / RFU WNT11 (11732464_a_at) / Fold change /veh WNT11 (11732464_a_at) / RFU C10orf10 (11716521_a_at) / Fold change /veh C10orf10 (11716521_a_at) / RFU C5orf56 (11738089_at) / Fold change /veh C5orf56 (11738089_at) / RFU CYB561 (11721691_x_at) / Fold change /veh CYB561 (11721691_x_at) / RFU ANKRD19P (11752326_a_at) / Fold change /veh ANKRD19P (11752326_a_at) / RFU OR2T12 /// OR2T33 /// OR2T8 (11738714_s_at) / Fold change /veh OR2T12 /// OR2T33 /// OR2T8 (11738714_s_at) / RFU VCAN (11748164_a_at) / Fold change /veh VCAN (11748164_a_at) / RFU JSRP1 (11732532_at) / Fold change /veh JSRP1 (11732532_at) / RFU KRTAP10-11 (11738290_x_at) / Fold change /veh KRTAP10-11 (11738290_x_at) / RFU MYO3A (11730013_a_at) / Fold change /veh MYO3A (11730013_a_at) / RFU EBF3 (11725865_a_at) / Fold change /veh EBF3 (11725865_a_at) / RFU CAMK2N1 (11719241_x_at) / Fold change /veh CAMK2N1 (11719241_x_at) / RFU C5orf56 (11738088_a_at) / Fold change /veh C5orf56 (11738088_a_at) / RFU OLFML3 (11715873_a_at) / Fold change /veh OLFML3 (11715873_a_at) / RFU LOC100653217 /// NTM (11731650_a_at) / Fold change /veh LOC100653217 /// NTM (11731650_a_at) / RFU MAPK11 (11762145_a_at) / Fold change /veh MAPK11 (11762145_a_at) / RFU FIZ1 (11724087_x_at) / Fold change /veh FIZ1 (11724087_x_at) / RFU OASL (11726364_x_at) / Fold change /veh OASL (11726364_x_at) / RFU SOX15 (11748057_x_at) / Fold change /veh SOX15 (11748057_x_at) / RFU CD79A (11719716_a_at) / Fold change /veh CD79A (11719716_a_at) / RFU HIST1H1D (11736915_at) / Fold change /veh HIST1H1D (11736915_at) / RFU CASKIN2 (11723855_a_at) / Fold change /veh CASKIN2 (11723855_a_at) / RFU LOC730098 (11760151_x_at) / Fold change /veh LOC730098 (11760151_x_at) / RFU OR4N2 (11742367_at) / Fold change /veh OR4N2 (11742367_at) / RFU PRRT2 (11749266_a_at) / Fold change /veh PRRT2 (11749266_a_at) / RFU SNX32 (11753110_a_at) / Fold change /veh SNX32 (11753110_a_at) / RFU CDHR5 (11726645_a_at) / Fold change /veh CDHR5 (11726645_a_at) / RFU RCAN1 (11760418_a_at) / Fold change /veh RCAN1 (11760418_a_at) / RFU FAM167A (11723789_a_at) / Fold change /veh FAM167A (11723789_a_at) / RFU FAM26E (11764081_at) / Fold change /veh FAM26E (11764081_at) / RFU ISYNA1 (11749810_s_at) / Fold change /veh ISYNA1 (11749810_s_at) / RFU ACY1 (11761880_at) / Fold change /veh ACY1 (11761880_at) / RFU 11764098_at / Fold change /veh 11764098_at / RFU SAMD14 (11745864_x_at) / Fold change /veh SAMD14 (11745864_x_at) / RFU NPB (11741838_a_at) / Fold change /veh NPB (11741838_a_at) / RFU TMPRSS6 (11731388_a_at) / Fold change /veh TMPRSS6 (11731388_a_at) / RFU KRTAP10-2 (11738614_at) / Fold change /veh KRTAP10-2 (11738614_at) / RFU ARHGAP8 /// PRR5-ARHGAP8 (11727945_x_at) / Fold change /veh ARHGAP8 /// PRR5-ARHGAP8 (11727945_x_at) / RFU KRTAP5-7 /// NADSYN1 (11734609_at) / Fold change /veh KRTAP5-7 /// NADSYN1 (11734609_at) / RFU RASL12 (11751679_a_at) / Fold change /veh RASL12 (11751679_a_at) / RFU CDKN2B (11736163_a_at) / Fold change /veh CDKN2B (11736163_a_at) / RFU PRF1 (11729649_at) / Fold change /veh PRF1 (11729649_at) / RFU, ZNF638 /// ZNF638-IT1 / Fold change vs veh, ZNF638 /// ZNF638-IT1 / RFU, PANK3 / Fold change vs veh, PANK3 / RFU, SH3YL1 / Fold change vs veh, SH3YL1 / RFU, ZEB2 / Fold change vs veh, ZEB2 / RFU, NRIP1 / Fold change vs veh, NRIP1 / RFU, PTTG1IP / Fold change vs veh, PTTG1IP / RFU, CAPN2 / Fold change vs veh, CAPN2 / RFU, MED14 / Fold change vs veh, MED14 / RFU, SNORA58 / Fold change vs veh, SNORA58 / RFU, C1orf63 / Fold change vs veh, C1orf63 / RFU, LRRFIP1 / Fold change vs veh, LRRFIP1 / RFU, NDUFAF7 / Fold change vs veh, NDUFAF7 / RFU, SLC12A2 / Fold change vs veh, SLC12A2 / RFU, IBTK / Fold change vs veh, IBTK / RFU, ESF1 / Fold change vs veh, ESF1 / Fold change vs veh, TMEM50B / RFU, TAOK1 / Fold change vs veh, TAOK1 / RFU, ACBD3 / Fold change vs veh, ACBD3 / RFU, TMA16 / Fold change vs veh, TMA16 / RFU, RWDD3 / Fold change vs veh, RWDD3 / RFU, BCAT1 / Fold change vs veh, BCAT1 / RFU, EDEM3 / Fold change vs veh, EDEM3 / RFU, TMEM33 / Fold change vs veh, TMEM33 / RFU, WDR75 / Fold change vs veh, WDR75 / RFU, AHCTF1 / Fold change vs veh, AHCTF1 / RFU, TFRC / Fold change vs veh, TFRC / RFU, ZDHHC17 / Fold change vs veh, ZDHHC17 / RFU, NOM1 / Fold change vs veh, NOM1 / RFU, ARL8B / Fold change vs veh, ARL8B / RFU, ZBTB11 / Fold change vs veh, ZBTB11 / RFU, TAMM41 / Fold change vs veh, TAMM41 / RFU, KIAA1704 /// LOC100996395 / Fold change vs veh, KIAA1704 /// LOC100996395 / RFU, ING1 / Fold change vs veh, ING1 / RFU, TRMT61B / Fold change vs veh, TRMT61B / RFU, FUBP3 / Fold change vs veh, FUBP3 / RFU, TP53 / Fold change vs veh, TP53 / RFU, TNKS2 / Fold change vs veh, TNKS2 / RFU, ZFP14 / Fold change vs veh, ZFP14 / RFU, ACTR2 / Fold change vs veh, ACTR2 / RFU, PPP3R1 / Fold change vs veh, PPP3R1 / RFU, PIK3R1 / Fold change vs veh, PIK3R1 / RFU, HNRNPA1 / Fold change vs veh, HNRNPA1 / RFU, RNF170 / Fold change vs veh, RNF170 / RFU, ZNF28 / Fold change vs veh, ZNF28 / RFU, RNGTT / Fold change vs veh, RNGTT / RFU, OGT / Fold change vs veh, OGT / RFU, BRD1 / Fold change vs veh, BRD1 / RFU, MARS / Fold change vs veh, MARS / RFU, ZNF655 / Fold change vs veh, ZNF655 / RFU, FAHD1 / Fold change vs veh, FAHD1 / RFU, BDP1 / Fold change vs veh, BDP1 / RFU, LRRCC1 / Fold change vs veh, LRRCC1 / RFU, ARID1A / Fold change vs veh, ARID1A / RFU, ZNF146 / Fold change vs veh, ZNF146 / RFU, ZNF330 / Fold change vs veh, ZNF330 / RFU, GPN3 / Fold change vs veh, GPN3 / RFU, C9orf123 / Fold change vs veh, C9orf123 / RFU, N4BP2L2 / Fold change vs veh, N4BP2L2 / RFU, ARFIP1 / Fold change vs veh, ARFIP1 / RFU, FAM179B / Fold change vs veh, FAM179B / RFU, BCL10 / Fold change vs veh, BCL10 / RFU, UHRF1BP1L / Fold change vs veh, UHRF1BP1L / RFU, BET1 / Fold change vs veh, BET1 / RFU, CNOT2 / Fold change vs veh, CNOT2 / RFU, ZNF268 / Fold change vs veh, ZNF268 / Fold change vs veh, ZNF507 / RFU, DGCR2 / Fold change vs veh, DGCR2 / RFU, WDSUB1 / Fold change vs veh, WDSUB1 / Fold change vs veh, HSP90B1 /// MIR3652 / RFU, ADSS / Fold change vs veh, ADSS / RFU, GK / Fold change vs veh, GK / RFU, ZNF148 / Fold change vs veh, ZNF148 / RFU, TAF9 / Fold change vs veh, TAF9 / RFU, SLC1A5 / Fold change vs veh, SLC1A5 / RFU, SLMO2 / Fold change vs veh, SLMO2 / RFU, ABCC4 / Fold change vs veh, ABCC4 / RFU, LOC101060439 /// RAP1B / Fold change vs veh, LOC101060439 /// RAP1B / RFU, RFX7 / Fold change vs veh, RFX7 / RFU, GTPBP10 / Fold change vs veh, GTPBP10 / RFU, CNEP1R1 / Fold change vs veh, CNEP1R1 / RFU, BIVM-ERCC5 /// ERCC5 / Fold change vs veh, BIVM-ERCC5 /// ERCC5 / RFU, ILF3 / Fold change vs veh, ILF3 / RFU 11762660_at / Fold change /veh 11762660_at / RFU VCAN (11757783_s_at) / Fold change /veh VCAN (11757783_s_at) / RFU DDX43 (11728927_at) / Fold change /veh DDX43 (11728927_at) / RFU KRT8 (11758188_x_at) / Fold change /veh KRT8 (11758188_x_at) / RFU NKD1 (11759106_at) / Fold change /veh NKD1 (11759106_at) / RFU SRD5A1 (11742802_a_at) / Fold change /veh SRD5A1 (11742802_a_at) / RFU TPSAB1 /// TPSB2 (11721975_s_at) / Fold change /veh TPSAB1 /// TPSB2 (11721975_s_at) / RFU GSTM3 (11746129_a_at) / Fold change /veh GSTM3 (11746129_a_at) / RFU IL23R (11737362_x_at) / Fold change /veh IL23R (11737362_x_at) / RFU TMEM51 (11727254_a_at) / Fold change /veh TMEM51 (11727254_a_at) / RFU PIWIL2 (11732686_x_at) / Fold change /veh PIWIL2 (11732686_x_at) / RFU ORM1 (11744905_x_at) / Fold change /veh ORM1 (11744905_x_at) / RFU CCDC152 (11743942_at) / Fold change /veh CCDC152 (11743942_at) / RFU ECM1 (11717891_a_at) / Fold change /veh ECM1 (11717891_a_at) / RFU IL23R (11748794_a_at) / Fold change /veh IL23R (11748794_a_at) / RFU TNFAIP8L3 (11732012_x_at) / Fold change /veh TNFAIP8L3 (11732012_x_at) / RFU MBOAT4 (11741988_at) / Fold change /veh MBOAT4 (11741988_at) / RFU 11764193_at / Fold change /veh 11764193_at / RFU TMEM53 (11763286_at) / Fold change /veh TMEM53 (11763286_at) / RFU MAGEB2 (11727129_at) / Fold change /veh MAGEB2 (11727129_at) / RFU TMEM200A (11744735_a_at) / Fold change /veh TMEM200A (11744735_a_at) / RFU CCDC152 (11751479_a_at) / Fold change /veh CCDC152 (11751479_a_at) / RFU FAM211A (11726209_a_at) / Fold change /veh FAM211A (11726209_a_at) / RFU RGS16 (11746705_a_at) / Fold change /veh RGS16 (11746705_a_at) / RFU VCAN (11755009_s_at) / Fold change /veh VCAN (11755009_s_at) / RFU RHOB (11743442_s_at) / Fold change /veh RHOB (11743442_s_at) / RFU RGS16 (11720943_a_at) / Fold change /veh RGS16 (11720943_a_at) / RFU RGS16 (11720944_at) / Fold change /veh RGS16 (11720944_at) / RFU, VPS4B / Fold change vs veh, VPS4B / RFU, CREB1 / Fold change vs veh, CREB1 / RFU, DNAJC13 / Fold change vs veh, DNAJC13 / RFU, GNAQ / Fold change vs veh, GNAQ / RFU, CDK5R1 / Fold change vs veh, CDK5R1 / RFU, ZRANB3 / Fold change vs veh, ZRANB3 / RFU, CUL4A / Fold change vs veh, CUL4A / RFU, CCNY / Fold change vs veh, CCNY / RFU, UFL1 / Fold change vs veh, UFL1 / RFU, COG3 / Fold change vs veh, COG3 / RFU, DIAPH2 / Fold change vs veh, DIAPH2 / RFU, SKA2 / Fold change vs veh, SKA2 / RFU, AFF3 / Fold change vs veh, AFF3 / RFU, LMF1 / Fold change vs veh, LMF1 / RFU, IPO11 / Fold change vs veh, IPO11 / RFU, DFFB / Fold change vs veh, DFFB / RFU, FOXP1 / Fold change vs veh, FOXP1 / RFU, CARD8 / Fold change vs veh, CARD8 / RFU, STRN3 / Fold change vs veh, STRN3 / RFU, ADK / Fold change vs veh, ADK / RFU, RASSF2 / Fold change vs veh, RASSF2 / RFU, WIPF1 / Fold change vs veh, WIPF1 / RFU, LARP1B / Fold change vs veh, LARP1B / RFU, RASA1 / Fold change vs veh, RASA1 / RFU, RB1 / Fold change vs veh, RB1 / RFU, PPFIA1 / Fold change vs veh, PPFIA1 / RFU, MAT2A / Fold change vs veh, MAT2A / RFU, CCT5 / Fold change vs veh, CCT5 / RFU, WDR92 / Fold change vs veh, WDR92 / RFU, CUX1 / Fold change vs veh, CUX1 / RFU, TTC7A / Fold change vs veh, TTC7A / RFU, TMEM135 / Fold change vs veh, TMEM135 / RFU, DEPTOR / Fold change vs veh, DEPTOR / RFU, CPM / Fold change vs veh, CPM / RFU, DNAJB6 / Fold change vs veh, DNAJB6 / RFU, CACNA2D3 / Fold change vs veh, CACNA2D3 / RFU, DTX4 / Fold change vs veh, DTX4 / RFU, TFCP2 / Fold change vs veh, TFCP2 / RFU, GMCL1 /// GMCL1P1 / Fold change vs veh, GMCL1 /// GMCL1P1 / RFU, AEBP2 / Fold change vs veh, AEBP2 / RFU, SNHG1 /// SNORD22 /// SNORD25 /// SNORD26 /// SNORD27 /// SNORD28 /// SNORD29 /// SNORD31 / Fold change vs veh, SNHG1 /// SNORD22 /// SNORD25 /// SNORD26 /// SNORD27 /// SNORD28 /// SNORD29 /// SNORD31 / Fold change (Aza/veh), C12orf56 (ProbeSet 11735607_a_at) / Fold change (ACY-1035/veh), C12orf56 (ProbeSet 11735607_a_at) / Fold change (Aza/veh), FGFR1OP (ProbeSet 11751329_s_at) / Fold change (ACY-1035/veh), FGFR1OP (ProbeSet 11751329_s_at) / Fold change (Aza/veh), VPS36 (ProbeSet 11739960_a_at) / Fold change (ACY-1035/veh), VPS36 (ProbeSet 11739960_a_at) / RFU SYPL1 (11715823_x_at) / Fold change /veh SYPL1 (11715823_x_at) / RFU IGFBP7 (11715501_s_at) / Fold change /veh IGFBP7 (11715501_s_at) / RFU REEP3 (11722064_at) / Fold change /veh REEP3 (11722064_at) / RFU IGLL1 (11728026_x_at) / Fold change /veh IGLL1 (11728026_x_at): dose or concentration left out as unconfirmed
Conditions: ProbeSet 11764057_s_at; LIST B

With `Nc1ccc(-c2cccs2)cc1NC(=O)c1ccc2c(c1)cc(C1CC1)n2CCN1CCOCC1` [ACY-1035] the “Fold change vs veh, C1orf63” value was 0.95.
